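Results reflect a 48-hour exposure of cells in 96-well plates to compound at five concentrations. TGI is the concentration that stops growth completely.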
Legend:
Experiment in all cases: DTP human tumour cell line panel, 48 h
SF-295 CNS = test system: SF-295 CNS
A549 NSCLC = test system: A549 NSCLC
COLO 205 colon = test system: COLO 205 colon
U251 CNS = test system: U251 CNS
ACHN renal = test system: ACHN renal
M14 melanoma = test system: M14 melanoma
HOP-62 NSCLC = test system: HOP-62 NSCLC
SK-OV-3 ovarian = test system: SK-OV-3 ovarian
SF-268 CNS = test system: SF-268 CNS
SNB-19 CNS = test system: SNB-19 CNS
MDA-N = test system: MDA-N
MCF7 breast = test system: MCF7 breast
SF-539 CNS = test system: SF-539 CNS
T-47D breast = test system: T-47D breast
NCI-H226 lung = test system: NCI-H226 lung
EKVX NSCLC = test system: EKVX NSCLC
NCI-H460 lung = test system: NCI-H460 lung
HOP-92 NSCLC = test system: HOP-92 NSCLC
OVCAR-8 ovarian = test system: OVCAR-8 ovarian
A498 renal = test system: A498 renal
MDA-MB-231 breast = test system: MDA-MB-231 breast
TK-10 renal = test system: TK-10 renal
UO-31 renal = test system: UO-31 renal
OVCAR-3 ovarian = test system: OVCAR-3 ovarian
UACC-257 melanoma = test system: UACC-257 melanoma
HT29 colon = test system: HT29 colon
HL-60(TB) leukemia = test system: HL-60(TB) leukemia
UACC-62 melanoma = test system: UACC-62 melanoma
CAKI-1 renal = test system: CAKI-1 renal
BT-549 breast = test system: BT-549 breast
HS 578T breast = test system: HS 578T breast
786-0 renal = test system: 786-0 renal
SK-MEL-2 melanoma = test system: SK-MEL-2 melanoma
SK-MEL-5 melanoma = test system: SK-MEL-5 melanoma
LOX IMVI melanoma = test system: LOX IMVI melanoma
NCI/ADR-RES ovarian = test system: NCI/ADR-RES ovarian
MOLT-4 leukemia = test system: MOLT-4 leukemia
NCI-H23 lung = test system: NCI-H23 lung
OVCAR-4 ovarian = test system: OVCAR-4 ovarian
HCT-116 colon = test system: HCT-116 colon
DU-145 prostate = test system: DU-145 prostate
MALME-3M melanoma = test system: MALME-3M melanoma
CCRF-CEM leukemia = test system: CCRF-CEM leukemia
K-562 leukemia = test system: K-562 leukemia
OVCAR-5 ovarian = test system: OVCAR-5 ovarian
HCT-15 colon = test system: HCT-15 colon
SNB-75 CNS = test system: SNB-75 CNS
KM12 colon = test system: KM12 colon
RXF 393 renal = test system: RXF 393 renal
SK-MEL-28 melanoma = test system: SK-MEL-28 melanoma
PC-3 prostate = test system: PC-3 prostate
SW-620 colon = test system: SW-620 colon
HCC-2998 colon = test system: HCC-2998 colon
SN12C renal = test system: SN12C renal
MDA-MB-435 = test system: MDA-MB-435
IGROV1 ovarian = test system: IGROV1 ovarian
NCI-H522 lung = test system: NCI-H522 lung
RPMI-8226 leukemia = test system: RPMI-8226 leukemia

CCOP(=O)(OCC)/C(=C/c1ccccc1)CC(C)=O
TGI (SF-295 CNS): > 100 µM
TGI (A549 NSCLC): > 100 µM
TGI (COLO 205 colon): > 100 µM
TGI (U251 CNS): > 100 µM
TGI (ACHN renal): > 100 µM
TGI (M14 melanoma): > 100 µM
TGI (HOP-62 NSCLC): > 100 µM
TGI (SK-OV-3 ovarian): > 100 µM
TGI (SF-268 CNS): > 100 µM
TGI (SNB-19 CNS): > 100 µM
TGI (MDA-N): > 100 µM
TGI (MCF7 breast): > 100 µM
TGI (SF-539 CNS): > 100 µM
TGI (T-47D breast): > 100 µM
TGI (NCI-H226 lung): > 100 µM
TGI (EKVX NSCLC): > 100 µM
TGI (NCI-H460 lung): > 100 µM
TGI (HOP-92 NSCLC): > 100 µM
TGI (OVCAR-8 ovarian): > 100 µM
TGI (A498 renal): > 100 µM
TGI (MDA-MB-231 breast): > 100 µM
TGI (TK-10 renal): > 100 µM
TGI (UO-31 renal): > 100 µM
TGI (OVCAR-3 ovarian): > 100 µM
TGI (UACC-257 melanoma): > 100 µM
TGI (HT29 colon): > 100 µM
TGI (HL-60(TB) leukemia): 68.7 µM
TGI (UACC-62 melanoma): > 100 µM
TGI (CAKI-1 renal): > 100 µM
TGI (BT-549 breast): > 100 µM
TGI (HS 578T breast): > 100 µM
TGI (786-0 renal): > 100 µM
TGI (SK-MEL-2 melanoma): > 100 µM
TGI (SK-MEL-5 melanoma): > 100 µM
TGI (LOX IMVI melanoma): > 100 µM
TGI (NCI/ADR-RES ovarian): > 100 µM
TGI (MOLT-4 leukemia): > 100 µM
TGI (NCI-H23 lung): > 100 µM
TGI (OVCAR-4 ovarian): > 100 µM
TGI (HCT-116 colon): > 100 µM
TGI (DU-145 prostate): > 100 µM
TGI (MALME-3M melanoma): > 100 µM
TGI (CCRF-CEM leukemia): > 100 µM
TGI (K-562 leukemia): > 100 µM
TGI (OVCAR-5 ovarian): > 100 µM
TGI (HCT-15 colon): > 100 µM
TGI (SNB-75 CNS): > 100 µM
TGI (KM12 colon): > 100 µM
TGI (RXF 393 renal): > 100 µM
TGI (SK-MEL-28 melanoma): > 100 µM
TGI (PC-3 prostate): > 100 µM
TGI (SW-620 colon): > 100 µM
TGI (HCC-2998 colon): > 100 µM
TGI (SN12C renal): > 100 µM
TGI (MDA-MB-435): > 100 µM
TGI (IGROV1 ovarian): > 100 µM

Nc1sccc1S(=O)(=O)c1ccsc1N
TGI (SF-295 CNS): > 100 µM
TGI (A549 NSCLC): > 100 µM
TGI (COLO 205 colon): > 100 µM
TGI (U251 CNS): > 100 µM
TGI (ACHN renal): > 100 µM
TGI (M14 melanoma): > 100 µM
TGI (HOP-62 NSCLC): > 100 µM
TGI (SK-OV-3 ovarian): > 100 µM
TGI (SF-268 CNS): > 100 µM
TGI (SNB-19 CNS): > 100 µM
TGI (MDA-N): > 100 µM
TGI (MCF7 breast): > 100 µM
TGI (SF-539 CNS): > 100 µM
TGI (T-47D breast): > 100 µM
TGI (NCI-H226 lung): > 100 µM
TGI (EKVX NSCLC): > 100 µM
TGI (NCI-H460 lung): > 100 µM
TGI (HOP-92 NSCLC): > 100 µM
TGI (OVCAR-8 ovarian): > 100 µM
TGI (A498 renal): > 100 µM
TGI (MDA-MB-231 breast): > 100 µM
TGI (TK-10 renal): > 100 µM
TGI (UO-31 renal): > 100 µM
TGI (OVCAR-3 ovarian): > 100 µM
TGI (UACC-257 melanoma): > 100 µM
TGI (HT29 colon): > 100 µM
TGI (UACC-62 melanoma): > 100 µM
TGI (CAKI-1 renal): > 100 µM
TGI (BT-549 breast): > 100 µM
TGI (HS 578T breast): > 100 µM
TGI (786-0 renal): > 100 µM
TGI (SK-MEL-2 melanoma): > 100 µM
TGI (SK-MEL-5 melanoma): > 100 µM
TGI (LOX IMVI melanoma): > 100 µM
TGI (NCI/ADR-RES ovarian): > 100 µM
TGI (MOLT-4 leukemia): > 100 µM
TGI (NCI-H23 lung): > 100 µM
TGI (NCI-H522 lung): > 100 µM
TGI (OVCAR-4 ovarian): > 100 µM
TGI (HCT-116 colon): > 100 µM
TGI (DU-145 prostate): > 100 µM
TGI (MALME-3M melanoma): > 100 µM
TGI (OVCAR-5 ovarian): > 100 µM
TGI (HCT-15 colon): > 100 µM
TGI (SNB-75 CNS): > 100 µM
TGI (KM12 colon): > 100 µM
TGI (SK-MEL-28 melanoma): > 100 µM
TGI (PC-3 prostate): > 100 µM
TGI (SW-620 colon): > 100 µM
TGI (HCC-2998 colon): > 100 µM
TGI (SN12C renal): > 100 µM
TGI (RPMI-8226 leukemia): > 100 µM
TGI (MDA-MB-435): > 100 µM
TGI (IGROV1 ovarian): > 100 µM

From PubChem BioAssay (NCI)
